In series [1] the test system is cynomolgus monkeys. Briefly: Evaluation of wake-promoting effects in cynomolgus monkeys (EEG/EMG). The series is classed as in vivo, cynomolgus monkey. The conditions noted are these: Macaca fascicularis, time spent in wakefulness for 4 h after administration, read-out: Wakefulness time (% of vehicle treatment) (Mean); for response vs control in vivo at 3 mg/kg: 3 mg/kg p.o. at ZT12; for response vs control in vivo at 0.1 mg/kg / response vs control in vivo at 0.3 mg/kg: sc; for response vs control in vivo at 0.1 mg/kg: 0.1 mg/kg s.c. at ZT12; for response vs control in vivo at 0.3 mg/kg: 0.3 mg/kg s.c. at ZT12. On the procedure: The wake-promoting effects were evaluated by measuring the electroencephalogram (EEG) and electromyogram (EMG) in cynomolgus monkeys. Under isoflurane anesthesia (1-5%, Pfizer Japan Inc., Tokyo, Japan), male cynomolgus monkeys (3-5 years old, Hamri Co., Ltd., Ibaraki, Japan) were surgically implanted with radio-telemetry transmitters (TL10M3-D70-EEE, Data Sciences International Inc., MN, USA). EEG electrodes were screwed into the skull at the parietal area. EMG electrodes were implanted on the cervical muscles. After the surgery, each monkey was given penicillin (100,000 units/head, i.m., Meiji Seika Pharma Co., Ltd., Tokyo, Japan), buprenorphine (0.02 mg/kg, i.m., Otsuka Pharmaceutical Co., Ltd., Tokyo, Japan) and prednisolone (1 mg/kg, s.c., Kyoritsu Seiyaku Co., Ltd., Tokyo, Japan) daily for one week. After at least a 1-month recovery period in home cages, the monkeys were habituated to the recording chamber placed in a soundproof room. EEG and EMG signals were recorded using the telemetry system (Dataquest ART software, Data Sciences International Inc., MN, USA) and the signals were analyzed using SleepSign software (Kissei Comtec Co., Ltd., Nagano, Japan). After confirming long sleep in dark phase in the experimental room, we used animals to examine the wake-promoting effect of compounds.
Oral test compounds (3 or 10 mg/kg) suspended in 0.5% methylcellulose aqueous solution, or vehicle (i.e., 0.5% methylcellulose aqueous solution) was administered orally (p.o.) to monkeys at zeitgeber time 12 (ZT12) in a volume of 5 mL/kg body weight in cross-over design or pre-post design (n=1-4). EEG and EMG recordings were performed for 4 h after the compound administration. The time spent in wakefulness for 4 h after administration (% of vehicle treatment) was calculated by using SleepSign.
Parenteral test compounds (0.1 or 0.3 mg/kg) dissolved in a mixed solution comprising 5% DMSO, 5% Cremophor EL, 20% PEG400 and 70% soluplus (1% (w/v)), or vehicle (i.e., a mixed solution comprising 5% DMSO, 5% Cremophor EL, 20% PEG400 and 70% soluplus (1% (w/v))) was administered subcutaneously (s.c.) to monkeys at ZT12 in a volume of 0.5 mL/kg body weight in a pre-post design (n=1-2). EEG and EMG recordings were performed for 4 h after the compound administration. The time spent in wakefulness for 4 h after administration (% of vehicle treatment) was calculated by using SleepSign.

Series [2] can be described thus: Evaluation of microsome stability in human. The series is classed as in vitro ADME. The conditions noted are these: pH 7.4; in vitro intrinsic metabolic clearance; human liver microsomes 0.2 mg/mL, 1 μmol/L test compound, NADPH-generating system. On the procedure:
Human liver microsomes were purchased from Xenotech, LLC (Lenexa, Kans.). An incubation mixture consisted of microsomes in 50 mmol/L KH2PO4—K2HPO4 phosphate buffer (pH 7.4) and 1 μmol/L test compound. The concentration of microsomal protein was 0.2 mg/mL. An NADPH-generating system (5 mmol/L MgCl2, 5 mmol/L glucose-6-phosphate, 0.5 mmol/L beta-NADP+ and 1.5 unit/mL glucose-6-phosphate dehydrogenase) was added to the incubation mixture with a half volume of the reaction mixture to initiate the enzyme reaction. The reaction was terminated 15 and 30 minutes after the initiation of the reaction by mixing the reaction mixture with acetonitrile, followed by centrifugation at 2500 rpm for 10 min. The supernatant was subjected to LC/MS/MS analysis. The metabolic rate constant was calculated as the slope of the remaining rate-time plot. The in vitro intrinsic metabolic clearance was calculated by dividing initial metabolic rate constant by microsomal protein in the incubation mixture.

Series [3] addresses T1, human orexin type 2 receptor (Homo sapiens, UniProt O43614).
T1 construct: expressed in transfected cells
T1 sequence (O43614 1-444): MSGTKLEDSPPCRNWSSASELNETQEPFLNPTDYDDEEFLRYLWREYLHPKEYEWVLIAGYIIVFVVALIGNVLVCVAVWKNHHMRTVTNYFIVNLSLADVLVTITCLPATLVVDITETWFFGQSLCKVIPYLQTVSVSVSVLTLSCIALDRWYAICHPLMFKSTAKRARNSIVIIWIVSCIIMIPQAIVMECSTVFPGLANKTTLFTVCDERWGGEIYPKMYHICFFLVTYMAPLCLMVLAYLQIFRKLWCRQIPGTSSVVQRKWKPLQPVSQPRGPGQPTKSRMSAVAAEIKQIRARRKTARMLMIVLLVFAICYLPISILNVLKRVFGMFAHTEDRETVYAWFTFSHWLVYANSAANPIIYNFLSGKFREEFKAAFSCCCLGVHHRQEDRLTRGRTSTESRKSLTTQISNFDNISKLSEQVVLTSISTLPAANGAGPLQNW
The experiment in a line: Measurement of orexin type 2 receptor agonist activity (calcium indicator fluorescence, CHO cells forcibly expressing human OX2 receptor). The class given is cell-based. The conditions noted are these: compound at 3 μM; 0% = DMSO, 100% = orexin A (human) 10 nM. The essentials: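 Agonist response normalised between vehicle (0%) and orexin A at 10 nM final (100%), from kinetic Fluo-4 calcium signals recorded for about 2 min after compound addition. Cells: stable human OX2R CHO clone, dye-loaded 30 min at 37 °C plus 30 min at room temperature.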

For the compound `CCS(=O)(=O)N[C@@H]1[C@H](Cc2cccc(-c3cccc(F)c3)c2F)N(C(=O)[C@H]2CCO2)CC1(F)F` [Example 1, N-[(2S,3R)-2-[(2,3′-difluoro[1,1′-biphenyl]-3-yl)methyl]-4,4-difluoro-1-((2R)-oxetane-2-carbonyl)pyrrolidin-3-yl]ethanesulfonamide], the response vs control in vivo at 3 mg/kg in series [1] (po) turned out to be 234%. In series [2], this compound came in with an intrinsic clearance (microsomal CLint) at 1 μmol/L of 75 µL/min/mg. The “OX2R agonist activity (3 μM, %)” value in series [3] worked out at 100%.
For `CC(C)(O)C(=O)N1CC(F)(F)[C@H](NS(C)(=O)=O)[C@@H]1Cc1cccc(-c2cc(F)cc(F)c2)c1F` [Example 2, N-{(2S,3R)-4,4-difluoro-1-(2-hydroxy-2-methylpropanoyl)-2-[(2,3′,5′-trifluoro[1,1′-biphenyl]-3-yl)methyl]pyrrolidin-3-yl}methanesulfonamide], the response vs control in vivo at 3 mg/kg in series [1] (po) was found to be 600%. The compound further returned a microsomal CLint at 1 μmol/L in series [2] of 40 µL/min/mg. The “OX2R agonist activity (3 μM, %)” value in series [3] worked out at 106%.
Consider `CCS(=O)(=O)N[C@@H]1[C@H](Cc2cccc(-c3cc(F)cc(F)c3)c2F)N(C(=O)C(C)(C)O)CC1(F)F` [Example 3, N-{(2S,3R)-4,4-difluoro-1-(2-hydroxy-2-methylpropanoyl)-2-[(2,3′,5′-trifluoro[1,1′-biphenyl]-3-yl)methyl]pyrrolidin-3-yl}ethanesulfonamide], for which the response vs control in vivo at 3 mg/kg in series [1] (po) came to 613%. The “OX2R agonist activity (3 μM, %)” value in series [3] turned out to be 106%.
With `CCS(=O)(=O)N[C@@H]1[C@H](Cc2cccc(-c3ccccc3)c2F)N(C(=O)C(C)(C)O)CC1(F)F` [Example 5, N-[(2S,3R)-4,4-difluoro-2-[(2-fluoro[1,1′-biphenyl]-3-yl)methyl]-1-(2-hydroxy-2-methylpropanoyl)pyrrolidin-3-yl]ethanesulfonamide], in series [1] (po, 10 mg/kg p.o. at ZT12), the response vs control in vivo at 10 mg/kg stood at 412%. In addition, the microsomal CLint at 1 μmol/L in series [2] was 12 µL/min/mg. For the same compound, the “OX2R agonist activity (3 μM, %)” value in series [3] is 117%.
With `CCS(=O)(=O)N[C@@H]1[C@H](Cc2cccc(-c3cc(F)cc(F)c3)c2F)N(C(=O)[C@H]2CCO2)CC1(F)F` [Example 56, N-{(2S,3R)-4,4-difluoro-1-((2R)-oxetane-2-carbonyl)-2-[(2,3′,5′-trifluoro[1,1′-biphenyl]-3-yl)methyl]pyrrolidin-3-yl}ethanesulfonamide], the response vs control in vivo at 3 mg/kg in series [1] (po) is 417%. Also, the intrinsic metabolic clearance (microsomal CLint) at 1 μmol/L in series [2] was determined as 135 µL/min/mg. Moreover, the “OX2R agonist activity (3 μM, %)” value in series [3] stood at 95%.
On to `CCS(=O)(=O)N[C@@H]1[C@H](Cc2cccc(-c3cccc(F)c3F)c2F)N(C(=O)C(C)(C)O)CC1(F)F` [Example 66, N-{(2S,3R)-4,4-difluoro-1-(2-hydroxy-2-methylpropanoyl)-2-[(2,2′,3′-trifluoro[1,1′-biphenyl]-3-yl)methyl]pyrrolidin-3-yl}ethanesulfonamide], for which the response vs control in vivo at 3 mg/kg in series [1] (po) amounted to 463%. This compound also came in with a microsomal CLint at 1 μmol/L in series [2] of 61 µL/min/mg. Moreover, the “OX2R agonist activity (3 μM, %)” value in series [3] is 104%.
`Cc1cccc(-c2cccc(C[C@H]3[C@@H](NS(=O)(=O)N(C)C)C(F)(F)CN3C(=O)N3CCC3)c2F)c1` [Example 443, N′-{(2S,3R)-1-(azetidine-1-carbonyl)-4,4-difluoro-2-[(2-fluoro-3′-methyl[1,1′-biphenyl]-3-yl)methyl]pyrrolidin-3-yl}-N,N-dimethylsulfuric diamide]: the response vs control in vivo at 0.1 mg/kg in series [1] is 532%. Besides, the “OX2R agonist activity (3 μM, %)” value in series [3] is 90%.
Regarding `CCS(=O)(=O)N[C@H]1[C@@H](F)CN(C(=O)N2CCC2)[C@H]1Cc1cccc(-c2cc(F)cc(F)c2)c1F` [Example 450, N-{(2S,3R,4S)-1-(azetidine-1-carbonyl)-4-fluoro-2-[(2,3′,5′-trifluoro[1,1′-biphenyl]-3-yl)methyl]pyrrolidin-3-yl}ethanesulfonamide], the response vs control in vivo at 0.3 mg/kg in series [1] turned out to be 814%. Besides, the “OX2R agonist activity (3 μM, %)” value in series [3] was 86%.
Turning to `CCS(=O)(=O)N[C@H]1[C@@H](F)CN(C(=O)N2CCC2)[C@H]1Cc1cccc(-c2cccc(C)c2)c1F` [Example 451, N-{(2S,3R,4S)-1-(azetidine-1-carbonyl)-4-fluoro-2-[(2-fluoro-3′-methyl[1,1′-biphenyl]-3-yl)methyl]pyrrolidin-3-yl}ethanesulfonamide], the response vs control in vivo at 0.1 mg/kg in series [1] is 225%. For the same compound, in series [3], the “OX2R agonist activity (3 μM, %)” value worked out at 82%.
For `Cc1cccc(-c2cccc(C[C@H]3[C@@H](NS(=O)(=O)N(C)C)[C@@H](F)CN3C(=O)N(C)C)c2F)c1` [Example 459, (2S,3R,4S)-3-[(dimethylsulfamoyl)amino]-4-fluoro-2-[(2-fluoro-3′-methyl[1,1′-biphenyl]-3-yl)methyl]-N,N-dimethylpyrrolidine-1-carboxamide], in series [1], the response vs control in vivo at 0.3 mg/kg is 431%. Besides, the “OX2R agonist activity (3 μM, %)” value in series [3] was 78%.
For `Cc1cccc(-c2cccc(C[C@H]3[C@@H](NS(=O)(=O)N(C)C)[C@@H](F)CN3C(=O)C3(O)CCC3)c2F)c1` [Example 462, N′-[(2S,3R,4S)-4-fluoro-2-[(2-fluoro-3′-methyl[1,1′-biphenyl]-3-yl)methyl]-1-(1-hydroxycyclobutane-1-carbonyl)pyrrolidin-3-yl]-N,N-dimethylsulfuric diamide], the response vs control in vivo at 0.3 mg/kg in series [1] was determined as 365%. The “OX2R agonist activity (3 μM, %)” value in series [3] worked out at 78%.
Turning to `Cc1cccc(-c2cccc(C[C@H]3[C@@H](NS(=O)(=O)N(C)C)[C@@H](F)CN3C(=O)N3CCC3)c2F)c1` [Example 463, N′-{(2S,3R,4S)-1-(azetidine-1-carbonyl)-4-fluoro-2-[(2-fluoro-3′-methyl[1,1′-biphenyl]-3-yl)methyl]pyrrolidin-3-yl}-N,N-dimethylsulfuric diamide], the response vs control in vivo at 0.1 mg/kg in series [1] is 483%. The “OX2R agonist activity (3 μM, %)” value in series [3] is on record as 79%.
In the case of `CN(C)S(=O)(=O)N[C@@H]1[C@H](Cc2cccc(-c3cc(F)cc(F)c3)c2F)N(C(=O)[C@H]2CCO2)CC1(F)F` [Example 542, N′-{(2S,3R)-4,4-difluoro-1-[(2R)-oxetane-2-carbonyl]-2-[(2,3′,5′-trifluoro[1,1′-biphenyl]-3-yl)methyl]pyrrolidin-3-yl}-N,N-dimethylsulfuric diamide], the response vs control in vivo at 0.3 mg/kg in series [1] came to 505%. In series [3], the “OX2R agonist activity (3 μM, %)” value turned out to be 100%.

These data come from patent US20230040770A1, “HETEROCYCLIC COMPOUND AND USE THEREOF” (TAKEDA PHARMACEUTICAL COMPANY LIMITED, priority 2019, published 2023).
